One may read the IC50 as the concentration needed to halve the response being measured.

Sequence of recombinant human TGM2 (P21980 whole entry): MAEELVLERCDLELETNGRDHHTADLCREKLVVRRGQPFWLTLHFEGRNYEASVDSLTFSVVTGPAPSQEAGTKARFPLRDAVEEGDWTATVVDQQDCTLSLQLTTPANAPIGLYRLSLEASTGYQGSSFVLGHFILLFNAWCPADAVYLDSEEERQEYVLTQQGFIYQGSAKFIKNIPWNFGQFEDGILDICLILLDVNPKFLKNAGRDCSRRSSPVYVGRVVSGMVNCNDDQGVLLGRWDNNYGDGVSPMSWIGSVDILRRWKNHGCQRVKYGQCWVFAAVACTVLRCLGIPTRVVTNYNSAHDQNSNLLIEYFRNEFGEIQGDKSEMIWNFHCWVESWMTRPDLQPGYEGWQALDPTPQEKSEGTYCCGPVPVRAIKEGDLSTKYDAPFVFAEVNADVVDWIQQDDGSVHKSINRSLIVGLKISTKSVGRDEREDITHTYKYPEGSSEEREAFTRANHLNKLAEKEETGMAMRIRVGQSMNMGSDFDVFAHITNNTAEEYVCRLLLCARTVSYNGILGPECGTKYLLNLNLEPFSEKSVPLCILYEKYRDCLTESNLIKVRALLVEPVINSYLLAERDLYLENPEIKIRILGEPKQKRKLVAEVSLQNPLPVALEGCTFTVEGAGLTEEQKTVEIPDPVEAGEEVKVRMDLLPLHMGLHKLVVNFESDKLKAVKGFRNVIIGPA

In the first assay the target is recombinant human TGM2 (Homo sapiens (Human), UniProt P21980). Nature of the assay: Assay for quantification of TGM2 transglutaminase inhibitory activity (fluorescence, H-Abz-APE(CAD-DNP)QEA-OH substrate). The assay is classed as biochemical. As to conditions: recombinant human TGM2 25 μg/ml; substrate 50 μM, glycine methyl ester 5 mM; 15 min preincubation at room temperature; pH 7.5; read-out: IC50 values for inhibition of TGM2. Here is the method:
a) Assay Method for the Quantification of TGM2 Transglutaminase Inhibitory Activity
The activity of the compounds for inhibition of TGM2 was determined with recombinant human TGM2 (Zedira GmbH, Darmstadt, Germany, Product Nr. T002) and the peptidic compound H-Abz-APE(CAD-DNP)QEA-OH as substrate (Zedira GmbH, Darmstadt, Germany, Product Nr. A102; CAD-DNP is N^ω-2,4-dinitrophenyl-cadaverine, i.e. the carboxylic acid group in the side chain of the respective glutamyl moiety is amidated with the primary amino group of N-(2,4-dinitrophenyl)pentane-1,5-diamine; cf. also K. Oertel et al., Anal. Biochem. 2007, 367: 152-158). For this purpose, 2 μl of a solution of different concentrations of the test compound in dimethyl sulfoxide was added to 28 μl of buffer (50 mM TRIS, 100 mM NaCl, 10 mM CaCl2, pH 7.5) and 10 μl of a TGM2 solution to give a TMG2 test concentration of 25 μg/ml, and the mixture incubated for 15 minutes at room temperature in a 96 half-well microtiter plate. The enzyme reaction was started by the addition of 10 μl of substrate solution containing H-Abz-APE(CAD-DNP)QEA-OH and glycine methyl ester hydrochloride in buffer to give test concentrations of H-Abz-APE(CAD-DNP)QEA-OH of 50 μM and of glycine methyl ester hydrochloride of 5 mM. The time course of the reaction was monitored with excitation at 318 nm and measurement at emission wavelength 418 nm in a microtiter plate reader (SpectraMax M5, Molecular Devices) over 15 minutes. Rates were calculated from the linear part of the curve (generally between 5 and 10 minutes). IC50 values were calculated from the means (duplicates) of a dilution series of the compound, using the software Softmax Pro (Version 4.8, Molecular Devices).
`O=C(N1CCOCC1)n1sc2c(ccc[n+]2[O-])c1=O` [Example 5]: the IC50 was 270 nM.

`N#Cc1ccc(N2CCN(C(=O)n3sc4ncccc4c3=O)CC2)cc1` [Example 6]: the IC50 was determined as 1100 nM.

For `O=C(O)CN1CCN(C(=O)n2sc3ncccc3c2=O)CC1` [Example 8], the IC50 turned out to be 18000 nM. Same read-out and setting: to `O=C(O)CN1CCN(C(=O)n2sc3c(ccc[n+]3[O-])c2=O)CC1` [Example 10] belongs 12000 nM; to `CC(NC(=O)n1sc2c(ccc[n+]2[O-])c1=O)c1ccc2c(c1)OCCO2` (centres unmarked) [Example 16], 26000 nM; to `O=C(CCOc1ccccc1)N1CCN(C(=O)n2sc3ncccc3c2=O)CC1` [Example 20], 110 nM.

As for `O=C(CCOc1ccccc1)N1CCN(C(=O)n2sc3c(ccc[n+]3[O-])c2=O)CC1` [Example 21], the IC50 is 14 nM.

For `COc1ccc(CNC(=O)n2sc3c(ccc[n+]3[O-])c2=O)cc1OC` [Example 24], the IC50 was found to be 370 nM. The same measure, in the same setting: then `CC(=O)N1CCN(C(=O)n2sc3ncccc3c2=O)CC1` [Example 26], with 340 nM. Same read-out and setting: then `O=C(C1CC1)N1CCN(C(=O)n2sc3ncccc3c2=O)CC1` [Example 27], with 420 nM. Still for that read-out and setting: then `O=C(C1CC1)N1CCN(C(=O)n2sc3c(ccc[n+]3[O-])c2=O)CC1` [Example 28], with 45 nM; and `CC(C)C(=O)N1CCN(C(=O)n2sc3c(ccc[n+]3[O-])c2=O)CC1` [Example 29], with 62 nM.

On to `CCS(=O)(=O)N1CCN(C(=O)n2sc3ncccc3c2=O)CC1` [Example 36], for which the IC50 is 430 nM. Consider `CCS(=O)(=O)N1CCN(C(=O)n2sc3c(ccc[n+]3[O-])c2=O)CC1` [Example 38], for which the IC50 worked out at 61 nM. Same read-out and setting: then `CN1CCN(C2CCN(C(=O)n3sc4c(ccc[n+]4[O-])c3=O)CC2)CC1` [Example 40], with 340 nM; and `CNC1CCN(C(=O)n2sc3c(ccc[n+]3[O-])c2=O)CC1` [Example 42], with 240 nM; and `NCC(=O)N1CCN(C(=O)n2sc3c(ccc[n+]3[O-])c2=O)CC1` [Example 44], with 120 nM. The same measure, in the same setting: to `O=C(N1CCC2(CCCN2)CC1)n1sc2c(ccc[n+]2[O-])c1=O` [Example 45] belongs 4300 nM. Still for that read-out and setting: then `O=C(N1CCN(c2ccc(N3CCCC3)nn2)CC1)n1sc2c(ccc[n+]2[O-])c1=O` [Example 46], with 140 nM.

Take `O=C([C@@H]1CCCN1)N1CCN(C(=O)n2sc3c(ccc[n+]3[O-])c2=O)CC1` [Example 50]: the IC50 was found to be 2300 nM.

On to `CCNCC(=O)N1CCN(C(=O)n2sc3c(ccc[n+]3[O-])c2=O)CC1` [Example 55], for which the half-inhibitory concentration (IC50) worked out at 2000 nM.

Turning to `O=C1CC[C@@H](C(=O)N2CCN(C(=O)n3sc4c(ccc[n+]4[O-])c3=O)CC2)N1` [Example 59], the IC50 was 1000 nM. On the same count and under the same terms, then `O=C1NCCN1C1CCN(C(=O)n2sc3c(ccc[n+]3[O-])c2=O)CC1` [Example 62], with 3100 nM; and `COc1ccc(C(=O)N2CCN(C(=O)n3sc4ncccc4c3=O)CC2)cc1OC` [Example 68], with 65 nM.

Take `COc1ccc(C(=O)N2CCN(C(=O)n3sc4c(ccc[n+]4[O-])c3=O)CC2)cc1OC` [Example 69]: the IC50 was 54 nM.

As for `CC(=O)N1CCN(C(=O)n2sc3c(ccc[n+]3[O-])c2=O)CC1` [Example 70], the IC50 was found to be 62 nM. Turning to `O=C(N1CCNCC1)n1sc2c(ccc[n+]2[O-])c1=O` [Example 72], the IC50 was 1200 nM. Same read-out and setting: to `O=C(c1ccncc1)N1CCN(C(=O)n2sc3c(ccc[n+]3[O-])c2=O)CC1` [Example 74] belongs 130 nM. Still for that read-out and setting: to `CCCC(=O)C1CCN(C(=O)n2sc3c(ccc[n+]3[O-])c2=O)CC1` [Example 78] belongs 120 nM; to `O=C1CN(C(=O)n2sc3c(ccc[n+]3[O-])c2=O)CCN1` [Example 80], 150 nM. The same measure, in the same setting: then `C[C@@H]1CN(C(=O)n2sc3c(ccc[n+]3[O-])c2=O)C[C@H](C)O1` [Example 81], with 2900 nM; and `COCCC(=O)N1CCN(C(=O)n2sc3c(ccc[n+]3[O-])c2=O)CC1` [Example 83], with 750 nM; and `NC(=O)N1CCN(C(=O)n2sc3c(ccc[n+]3[O-])c2=O)CC1` [Example 84], with 1700 nM.

With `O=C(N1CCC(O)CC1)n1sc2c(ccc[n+]2[O-])c1=O` [Example 86], the IC50 worked out at 2100 nM.

With `O=C(c1ccccn1)N1CCN(C(=O)n2sc3c(ccc[n+]3[O-])c2=O)CC1` [Example 89], the half-maximal inhibitory concentration (IC50) turned out to be 72 nM.

The next assay deals with micromass culture of mesenchymal cells.
Test: not given
To be noted: 30 μM in micromass culture; cited from earlier work.
On to `O=C(NC(Cc1c[nH]c2ccc(F)cc12)C(=O)NCC1CC(Br)=NO1)OCc1cnc2ccccc2c1` (centres unmarked) [ERW1069], for which the Xylt2 expression entry is on record as “increase” and the proteoglycan deposition entry is listed as “increase”.

The next assay has as its system chondrocytes.
Test: not given
As to conditions: cited from earlier work.
Take `NCCSSCCN` [cystamine]: the “active TGFβ1 in chondrocytes” value is given as “decrease”.

Values taken from patent US9260454B2, “Isothiazolopyridine-2-carboxamides and their use as pharmaceuticals” (Sanofi, priority 2011, dated 2016).
